According to patent US10093699B2, “Peptides with antimicrobial, anticancer and/or wound-healing promoting activities, pharmaceutical compositions containing the same, and use of the peptides with antimicrobial, anticancer and/or wound-healing promoting activities” (priority 2015, dated 2018):
Where a SMILES comes first, the peptide text is derived from it. [ ]: non-standard residue; d: D form. 2Nal = N[C@@H](Cc1ccc2ccccc2c1)C(=O)O

Experiments:
human fibroblast (HFW) = test: MTT cytotoxicity to normal fibroblasts; format: cell-based; settings: MTT assay
Procedure: Human lung cancer line PC9 and A549, oral squamous cell carcinoma cell line OECM-1 were cultured in RPMI medium supplemented with 10% fetal bovine serum and antibiotic. Human tongue carcinoma cell line SAS, oral cancer cell line C9, and human diploid fibroblast (HFW) were cultured in DMEM medium supplemented with 10% fetal bovine serum and antibiotic. Cells were cultured in a humidified incubator containing 5% CO2 at 37° C.
The MTT assay was employed to determine the in vitro cytotoxicity. All cancer cell lines were seeded in 96-well plate with concentration 5000 cells/100 μl/well and incubated for 24 hours. HFW was seeded with 8000 cells/100 μl/well.
After medium was removed, 100 μl fresh medium containing peptide (ranging from 50 μM to 3.13 μM, HFW was treated with 75 μM and 100 μM peptide additionally) was added to the wells. Following 3, 12 or 24 hour incubation, fresh medium with MTT (0.5 mg/ml) was replaced and incubated for 3 hours. After medium/MTT was removed, DMSO was added at 100 μl for dissolving the formazan crystal. Cell survival rate was calculated by measuring the absorbance at 540 nm using Multi-labeled Microplate Reader (VICTOR3). For cancer cells, medium mixed with H2O2 (aq) represented positive control (all cells died) while medium only represented negative control. For normal cells, medium only represented positive control (all cells lived) while medium mixed with H2O2 (aq) represented negative control (all cells died).
The cytotoxicities of S1 and its analogs on human lung cancer cells (i.e, PC9, PC9-G and A549), human oral cancer cells (i.e, C9, OECM-1, and SAS), and human fibroblast (HFW) were evaluated by MTT assay for 3, 12 and 24 hours.

[1] = system: PC9 human lung cancer cells; format: in vivo, male nude mice
Procedure: 12 male nude mice (BALB/cAnN.Cg-Foxn1nu/CrlNarl) were purchased from National Laboratory Animal Center, Taiwan.
100 μl human lung cancer cell PC9 (3×10^6 cells) in Matrigel (Corning) was injected subcutaneously into the dorsal side of 5-week-old male nude mice. Each mouse was inoculated two sites on its back (Taguchi F, Koh Y, Koizumi F, Tamura T, Saijo N, et al. (2004) Anticancer effects of ZD6474, a VEGF receptor tyrosine kinase inhibitor, in gefitinib (“Iressa”)-sensitive and resistant xenograft models. Cancer Sci 95: 984-989.). 1 week 5 days after implantation (cancer size>95 mm^3), 12 mice were allocated randomly into two group. One group was received K4R2Nal2S1 (5 mg/Kg, dissolving in 100 μl PBS buffer) by tail vein injection three times a week, the other group was injected PBS as control.
Body weight and cancer size were measured three times a week. The cancer volume was calculated by formula of width^2×length×0.52. The cancer volume below 100% of the pretreatment volume was defined as “cancer reduction” (Taguchi F, Koh Y, Koizumi F, Tamura T, Saijo N, et al. (2004) Anticancer effects of ZD6474, a VEGF receptor tyrosine kinase inhibitor, in gefitinib (“Iressa”)-sensitive and resistant xenograft models. Cancer Sci 95: 984-989.). “Cancer reduction” was confirmed when the mice were dissected.
The mice were sacrificed after treatment of 40 days, the cancers were removed, photographed, and weighed. All animal experiments were performed in accordance with the animal guidelines of the National Tsing Hua University Institutional Animal Care and approved by Animal Care Committee.
Solid cancers were fixed in 4% formaldehyde buffer. Paraffin-embedded tissues were cut to 2 μm-thickness sections, and deparaffinized in ultraclear buffer (J.T. Baker) and graded ethanol. The morphology of cancers was obtained by Hematoxylin and eosin (H&E) stained sections. In addition, the sections were immunostained with anti-cleaved-PARP (1:100) antibody (Cell Signaling, clone number: D65E10).
Tissue images were captured using light microscope (Eclipse E400, Nikon) with digital microscopy camera (AxioCam ICc 5, ZEISS), at 40×, 200× and 400× fields.
To evaluate the anticancer effect of K4R2Nal2-S1 peptide in vivo, PC9 cells were implanted subcutaneously to nude mice (see FIG. 7A) and followed by K4R2-Nal2-S1 injection via the intravenous route, at a dose of 5 mg/kg, three times weekly (FIGS. 7B and 7C).
To examine the involvement of necrosis and apoptosis in K4R2Nal2-S1 peptide mediated anticancer effect, lung tumors generated in the xenograft mouse model were excised and analyzed by Hematoxylin and eosin (H&E) staining and immunohistochemistry for cleaved PARP, a marker for cell apoptosis.

[2] = 5 mg/kg i.v., three times weekly, harvested 40 days after injection

CC(=O)N[C@@H](CCCCN)C(=O)N[C@@H](CCCCN)C(=O)N[C@@H](CCCCN)C(=O)N[C@@H](CCCCN)C(=O)N[C@@H](CCCNC(=N)N)C(=O)N[C@@H](CCCNC(=N)N)C(=O)N[C@@H](Cc1ccc2ccccc2c1)C(=O)N[C@@H](Cc1ccc2ccccc2c1)C(=O)N[C@@H](CCCCN)C(=O)N[C@@H](CCCCN)C(=O)N[C@@H](Cc1c[nH]c2ccccc12)C(=O)N[C@@H](CCCNC(=N)N)C(=O)N[C@@H](CCCCN)C(=O)N[C@@H](Cc1c[nH]c2ccccc12)C(=O)N[C@@H](CC(C)C)C(=O)N[C@@H](C)C(=O)N[C@@H](CCCCN)C(=O)N[C@@H](CCCCN)C(N)=O [K4R2-Nal2-S1, Ac-KKKKRR-Nal-Nal-KKWRKWLAKK-NH2] (Ac-KKKKRR[2Nal][2Nal]KKWRKWLAKK-NH2)
degrees of cytotoxicities to HFW (rank order) (human fibroblast (HFW)): S1 peptide<K4R2-Nal2-S1 peptide<K6-Nal2-S1 peptide<Nal2-S1 peptide | tumor growth ([1]; 5 mg/kg i.v., three times weekly): significant inhibition | volume of tumors harvested [1, 2]: decreased | weight of tumors harvested [1, 2]: decreased | number of exposed tumors ([1]; 46th day after implantation, 6 mice×2 side implantation, 12 in the PBS group): 7 | necrosis in tumors (H&E staining) ([1]; excised xenograft tumors): large scale of necrosis regions | cleaved PARP expression (immunohistochemistry) ([1]; excised xenograft tumors, next to the necrosis regions): increased expression of cleaved PARP
